Test results taken from US5525598A, “Gallium (III) complexes in pharmaceutical compositions” (Collery; Phillippe, priority 1991, dated 1996).
Where two headings read alike, the source gives them in different places.

Columns and labels:
[1] = tested on: human immunodeficiency virus (HIV-1); conditions: cited from earlier work; for EC50: read-out: EC50 (anti-HIV activity)
T4 lymphocytes [2] = conditions: cited from earlier work
[3] = per os, aqueous formulation, therapeutical dosages; EP-B1-0059148; cited from earlier work
sarcoma 180 = sarcoma 180 system
Method: The gallium complexes were administered to animals bearing the P-388 leukaemia or the sarcoma 180 system and the average survival time (T) of the treated animals was compared with the average survival of control animals C. A high value T/C is characteristic of an antitumoral activity. [formula]

T4 lymphocytes [4] = experiment: Drug effect on noninfected T4 lymphocytes (NCI XTT assay), IC50; type: cell-based
Excerpt: (§1) The gallium (III) complexes were screened for anti-HIV-1 activity at the National Cancer Institute, Bethesda, Md., as part of their in vitro Anti-AIDS Drug Discovery Program. The assay is based on the killing (cytopathic effect) of T4 lymphocytes by human immunodeficiency virus (HIV-1) and is designed to evaluate the drug effects at any stage of the virus reproductive cycle. […] All tests are compared with a positive control done at the same time and under identical conditions employing 3'-Azido-3'-deoxythymidine (AZT).
(§2) The general procedure is reprinted below from NCI infomation sheets:
(§3) 1. Candidate agent is dissolved in dimethylsulfoxide, then diluted 1:2000 in cell culture medium. […] dilutions (half-log10) are prepared before adding to 96-well microtiter plated.
(§4) 2. T4 lymphocytes (CEN cell line) are exposed to HIV at a virus-to-cell ratio of approximately 0.05 and are plated along with noninfected control cells into drug-containing wells or wells with medium alone.
(§5) 3. Cultures are incubated at 37° C. in a 5% carbon dioxide atmosphere for 6 days.
(§6) 4. The tetrazolium salt, XTT, is added to all wells, and cultures are incubated to allow formazon colour development by viable cells.
(§7) 5. Individual wells are analysed spectrophotometrically to quantitate formazon production and, in addition, are viewed microscopically for detection of viable cells and confirmation of protective activity.
(§8) 6. Drug-treated virus-infected cells are compared with drug-treated noninfected cells and with other appropriate controls (untreated infected and untreated noninfected cells, drug-containing wells without cells, etc.) on the same plate.
(§9) 7. Data reviewed in comparison with other tests done at the same time, and a determination about activity is made.

[5] = tested on: human immunodeficiency virus (HIV-1); experiment: Anti-HIV-1 activity, protection of T4 lymphocytes from killing by virus (NCI XTT assay); type: cell-based
Excerpt: as §1, §2, §3, §4, §5, §6, §7, §8, §9

[6] = tested on: reverse transcriptase of Rauscher murine leukemia virus; conditions: in vitro; Waalkes et al. 1974; cited from earlier work
refractory lymphomas = conditions: phase II trials, patients with refractory lymphomas; Foster et al. 1986; cited from earlier work
[7] = tested on: experimental animal tumors; conditions: Adamson et al. 1975; cited from earlier work
P-388 leukaemia = experiment: Antitumor activity, P-388 leukaemia, survival T/C; type: in vivo; conditions: P 388 system
[8] = CEM-SS, values from O. S. Weislow et al.
[9] = CEM, values from R. Vince et al.

## Cc1cn([C@H]2C[C@H](N=[N+]=[N-])[C@@H](CO)O2)c(=O)[nH]c1=O [AZT, 3'-Azido-3'-deoxythymidine]
[1]; [8]
  TI = IC50 /EC50: 1027
  EC50: 0.186 µM
[1]; [9]
  TI = IC50 /EC50: 3680
  EC50: 0.187 µM
T4 lymphocytes [2]; [8]
  IC50: 191 µM
T4 lymphocytes [2]; [9]
  IC50: 689 µM

## [Cl-].[Cl-].[Cl-].[Ga+3] [GaCl3, gallium (III) chloride]
[3]
  renal toxicity: no renal toxicity

## O=S(=O)([O-])c1ccc([O-])c2ncccc12.O=S(=O)([O-])c1ccc([O-])c2ncccc12.O=S(=O)([O-])c1ccc([O-])c2ncccc12.[Ga+3].[K+].[K+].[K+] [Tris-(5-sulfono-8-hydroxyquinoline)gallium(III)-potassium salt]
Sarcoma 180
  T/C (survival time of treated versus control animals): 153%

## Cc1ccn[nH]1.Cc1ccn[nH]1.Cc1ccn[nH]1.Cc1ccn[nH]1.[Cl-].[Cl-].[Cl][Ga-]([Cl])([Cl])[Cl].[Ga+3] [[(3-mpyr)4 GaCl2]GaCl4, trans-Dichlorotetrakis-(5-methylpyrazole)gallium (III) tetrachlorogallate (III)]
T4 lymphocytes [4]; CEM-6
  IC50: 164 µM
[5]; CEM-6
  EC50: 108 µM
  TI = IC50 /EC50: 1.52

## Cc1cn[nH]c1.Cc1cn[nH]c1.Cc1cn[nH]c1.Cc1cn[nH]c1.[Cl-].[Cl-].[Cl][Ga-]([Cl])([Cl])[Cl].[Ga+3] [[(4-mpyr)4 GaCl2]GaCl4, trans-Dichlorotetrakis-(4-methylpyrazole)gallium(II) tetrachlorogallate(III)]
T4 lymphocytes [4]; CEM-6
  IC50: 256 µM
T4 lymphocytes [4]; CEM-IW
  IC50: 197 µM
[5]; CEM-6
  EC50: 231 µM
  TI = IC50 /EC50: 1.11
[5]; CEM-IW
  EC50: 50.2 µM
  TI = IC50 /EC50: 3.92

## O=[N+]([O-])[O-].O=[N+]([O-])[O-].O=[N+]([O-])[O-].[Ga+3] [gallium nitrate]
[6]
  inhibition of reverse transcriptase: inhibits the reverse transcriptase
Refractory lymphomas
  antitumor activity: exhibits antitumor activity
[7]
  antitumor activity: had shown antitumor activity

## Dichloro-(2-α-oxybenzylbenzimidzoiato-N,O)gallium(III) [(HBB)GaCl2]
P-388 leukaemia
  T/C (survival time of treated versus control animals): 130%
T4 lymphocytes [4]; CEM-IW
  IC50: 221 µM
[5]; CEM-IW
  EC50: 43 µM
  TI = IC50 /EC50: 5.14

## trans-Dichlorotetrakis-(benzimidazole)gallium(III) chloride [[(bim)4 GaCl2]Cl]
T4 lymphocytes [4]; CEM-6
  IC50: 385 µM
[5]; CEM-6
  EC50: 5.01 µM
  TI = IC50 /EC50: 76.9
